Assays:
Format in all cases: in vivo, human
[1] = system: adult patients with Gaucher disease Type 3; test: Clinical study in GD-3 patients: resting-state fMRI connectivity
Protocol: During the study patients were evaluated for safety and tolerability, CSF and plasma biomarkers (glucosylceramide, GL-1; glucosylsphingosine, lyso-GL1), pharmacokinetics, markers for systemic disease (spleen and liver volume measured by magnetic resonance imaging (MRI), platelet count, hemoglobin levels), indicia of interstitial lung disease (high resolution pulmonary computed tomography (CT)), and horizontal saccadic eye movement. In addition, exploratory biomarkers were quantified in CSF of GD3 patients: ceramide (the precursor of GL-1), chitotriosidase (CHITO), GM3, and GPNMB. Symptoms of ataxia were measured using the SARA scale, neurological symptoms were measured using the trail making test, and functional MRI was used to assess neural connectivity in the brain.
Neurological function was further evaluated using functional magnetic resonance imaging (fMRI). Patient 2 was excluded because no fMRI data was collected at the Week 52 session. Resting-state fMRI screening sessions were performed at baseline screening, Week 26, and Week 52 visits. Connectivity estimates from four subjects (Patients 1, 3, 4, and […]) were entered into second-level analyses as a “compliant” group. Patient 5 was isolated due to likely non-compliance with study medication, as described above. Analyses were performed as described elsewhere (Smith et al. [2009]).
Spatial analysis of the connectivity between different anatomic regions of the brain is performed to define a correlation coefficient for regressed voxelwise mean intensity.
The results are summarized in the table below for all patients for RSNs 3 and 6 (RSNs 4 and 8 are not included) for the change in correlation coefficient between baseline and 52 weeks (as noted supra, Patient 2 is excluded because of lack of data).

[2] = system: plasma GL-1 (glucosylceramide); test: Study 2: plasma GL-1 pharmacodynamics
Protocol: The study enrolled and randomized 36 healthy adults (19 men and 17 women) (n=9 each to group).
Pharmacodynamic endpoints (plasma GL-1, GL-3, and GM3 concentrations) were assessed on Days 1-5, 8, 11, 13, and 14, at 0 hours […]; and on Day 15, at 24 hours after the Day 14 dose.

[3] = system: adult patients with Gaucher disease Type 3; test: Clinical study in GD-3 patients: vMRI brain tissue volume (TBM analysis); details: for Group A mean change in volume from Baseline to Week 52: Group A (eight patients), 15 mg/day + imiglucerase; for Patient 5 change in volume from Baseline to Week 52: Patient 5 (Compound 2 below LLOQ after 52 weeks)
Excerpt: Neurological function was further evaluated using volumetric magnetic resonance imaging (vMRI). The vMRI data was collected at screening sessions at baseline and after 52 weeks of the treatment regime for eight patients (“Group A”) and an additional isolated patient (Patient 5). Group A corresponds to the eleven patients described above, excluding Patient 5 and two other patients lacking analyzable vMRI data.
vMRI data was obtained and subsequently analyzed using FreeSurfer anatomic parcellation and a Tensor-Based Morphometry (TBM) analysis cycle. FreeSurfer is an opensource software package for the analysis and visualization of structural and functional neuroimaging data developed by the Laboratory for Computational Neuroimaging. TBM analysis (also known as Jacobian Integration) consists in estimating the volume changes as captured within the deformation fields resulting from applying a symmetric deformable registration technique between a pair of MR scans (baseline and follow-up), using a non-linear symmetric log-demons deformation technique using robust cross-correlation metric to ensure invertibility of the transformation (symmetric process). The deformation field is then analyzed by computing the determinant of its Jacobian matrix, which is a measure of local volume change. An integration of the determinant over a region of interest provides an estimation of the change rate of the volume of this brain region over time.
The overall pipeline takes as input a baseline (BL) and a follow-up (FU) image and consists of the following steps: • 1. Preprocessing and reformatting; • 2. Segmentation of baseline (BL) and follow-up (FU) using FreeSurfer; • 3. Multi-resolution rigid and affine registration of FU and BL to midspace; • 4. Symmetric deformable nonlinear registration between FU and BL; • 5. Jacobian image computation; • 6. Voxel-wise volume change computation; • 7. Region-wise volume change integration; and • 8. Output for the changes for regions of interest specified for the study.

Question: How did the “Change in Correlation Coefficient” value ([1]; Patient 1, RSNs 3 and 6, baseline to 52 weeks) turn out when `CC(C)(NC(=O)O[C@@H]1CN2CCC1CC2)c1csc(-c2ccc(F)cc2)n1` [Compound 2, (S)-quinuclidin-3-yl 2-(2-(4-fluorophenyl)thiazol-4-yl)propan-2-ylcarbamate] was run?
Answer: 0.359

Question: And the “Change in Correlation Coefficient” value ([1]; Patient 1, default mode (resting) network vs executive function network, first interim analysis)?
Answer: +0.20

Question: What about the “Change in Correlation Coefficient” value ([1]; Patient 3, RSNs 3 and 6, baseline to 52 weeks) of the same compound?
Answer: 0.383

Question: What about the “Change in Correlation Coefficient” value ([1]; Patient 3, default mode (resting) network vs executive function network, first interim analysis) of the same compound?
Answer: +0.20

Question: What about the “Change in Correlation Coefficient” value ([1]; Patient 4, RSNs 3 and 6, baseline to 52 weeks) of the same compound?
Answer: 0.201

Question: What about the “Change in Correlation Coefficient” value ([1]; Patient 4, default mode (resting) network vs executive function network, first interim analysis) of the same compound?
Answer: +0.20

Question: What about the “Change in Correlation Coefficient” value ([1]; Patient 5 (insufficient Compound 2 exposure), RSNs 3 and 6, baseline to 52 weeks) of the same compound?
Answer: −0.173

Question: What about the “Change in Correlation Coefficient” value ([1]; Patient 5 (likely non-compliance), default mode (resting) network vs executive function network, first interim analysis) of the same compound?
Answer: −0.13

Question: What about the “Change in Correlation Coefficient” value ([1]; Patient 6, RSNs 3 and 6, baseline to 52 weeks) of the same compound?
Answer: 0.779

Question: And the “Change in Correlation Coefficient” value ([1]; Patient 6, default mode (resting) network vs executive function network, first interim analysis)?
Answer: +0.70

Question: What about the “Change in Correlation Coefficient” value ([1]; Patient 7, RSNs 3 and 6, baseline to 52 weeks) of the same compound?
Answer: −0.013

Question: And the “Change in Correlation Coefficient” value ([1]; Patient 8, RSNs 3 and 6, baseline to 52 weeks)?
Answer: −0.058

Question: What about the “Change in Correlation Coefficient” value ([1]; Patient 9, RSNs 3 and 6, baseline to 52 weeks) of the same compound?
Answer: −0.302

Question: What about the “Change in Correlation Coefficient” value ([1]; Patient 10, RSNs 3 and 6, baseline to 52 weeks) of the same compound?
Answer: 0.105

Question: And the “Change in Correlation Coefficient” value ([1]; Patient 11, RSNs 3 and 6, baseline to 52 weeks)?
Answer: 0.035

Question: And the “connectivity between default mode and medial frontal networks (fMRI)” value ([1]; every subject except Patient 5, first interim analysis)?
Answer: enhanced connectivity

Question: What about the “connectivity between RSNs 1, 2 and 3 and RSNs 6, 7 and 8 (fMRI)” value ([1]; patients with sufficient Compound 2 exposure, second interim analysis) of the same compound?
Answer: enhanced connectivity

Question: And the “Mean estimated plasma GL-1 reduction from baseline attributable to Compound 2 Ctrough” value (“Mean estimated plasma GL-1 reduction” below) ([2]; 5 mg dose group, Ctrough 19.0 ng/mL, 90% CI 54.4-79.7%)?
Answer: 67.0%

Question: And the “Mean estimated plasma GL-1 reduction” value ([2]; 10 mg dose group, Ctrough 47.5 ng/mL, 90% CI 63.7-85.2%)?
Answer: 74.4%

Question: And the “Mean estimated plasma GL-1 reduction” value ([2]; 20 mg dose group, Ctrough 69.9 ng/mL, 90% CI 64.8-87.8%)?
Answer: 76.3%

Question: And the “day of maximal sustained effects on GL-1” value ([2]; 5- and 10-mg groups)?
Answer: 11 days

Question: What about the “day of maximal sustained effects on GL-1” value ([2]; 20-mg group) of the same compound?
Answer: ≤ 8 days

Question: And the “Mean calculated GL-1 reduction from baseline” value (from here on “Mean calculated GL-1 reduction”) ([2]; Day 15, 5-mg group)?
Answer: 41.9%

Question: And the “subjects with GL-1 values below LLOQ” value ([2]; Day 15, 5-mg group (n=9))?
Answer: 3 subjects

Question: And the “Mean calculated GL-1 reduction” value ([2]; Day 15, 10-mg group)?
Answer: 69.6%

Question: What about the “subjects with GL-1 values below LLOQ” value ([2]; Day 15, 10-mg group (n=9)) of the same compound?
Answer: 5 subjects

Question: And the “Mean calculated GL-1 reduction” value ([2]; Day 15, 20-mg group)?
Answer: 74.6%

Question: And the “subjects with GL-1 values below LLOQ” value ([2]; Day 15, 20-mg group (n=9))?
Answer: 9 subjects

Question: And the “whole brain tissue volume” value ([3]; Group A, 52 weeks, FIG. 1)?
Answer: overall increase in whole brain tissue volume

Question: What about the “Group A mean change in volume from Baseline to Week 52” value (shortened to “Group A mean change in volume”) ([3]; Left Cuneus) of the same compound?
Answer: +37.16 mm^3

Question: And the “Patient 5 change in volume from Baseline to Week 52” value (“Patient 5 change in volume” for short) ([3]; Left Cuneus)?
Answer: −23.9 mm^3

Question: What about the “Group A mean change in volume” value ([3]; Left Entorhinal Cortex) of the same compound?
Answer: +34.53 mm^3

Question: What about the “Patient 5 change in volume” value ([3]; Left Entorhinal Cortex) of the same compound?
Answer: +41.4 mm^3

Question: What about the “Group A mean change in volume” value ([3]; Left Lingual) of the same compound?
Answer: +50.08 mm^3

Question: What about the “Patient 5 change in volume” value ([3]; Left Lingual) of the same compound?
Answer: −60.0 mm^3

Question: And the “Group A mean change in volume” value ([3]; Left Pericalcarine Lobe)?
Answer: +18.46 mm^3

Question: And the “Patient 5 change in volume” value ([3]; Left Pericalcarine Lobe)?
Answer: −29.2 mm^3

Question: And the “Group A mean change in volume” value ([3]; Left Putamen)?
Answer: +94.70 mm^3

Question: And the “Patient 5 change in volume” value ([3]; Left Putamen)?
Answer: −51.7 mm^3

Question: And the whole brain volume ([3]; Patient 5 (did not successfully undergo the treatment regime), 52 weeks, FIG. 1)?
Answer: decrease in whole brain volume

Question: And the “Group A mean change in volume” value ([3]; Right Accumbens Area)?
Answer: +12.86 mm^3

Question: And the “Patient 5 change in volume” value ([3]; Right Accumbens Area)?
Answer: −52.1 mm^3

Question: What about the “Group A mean change in volume” value ([3]; Right Amygdala) of the same compound?
Answer: +60.78 mm^3

Question: And the “Patient 5 change in volume” value ([3]; Right Amygdala)?
Answer: −63.4 mm^3

Question: And the “Group A mean change in volume” value ([3]; Right Postcentral Lobe)?
Answer: +91.66 mm^3

Question: What about the “Patient 5 change in volume” value ([3]; Right Postcentral Lobe) of the same compound?
Answer: −63.4 mm^3

Question: And the “Group A mean change in volume” value ([3]; Right Putamen)?
Answer: +97.84 mm^3

Question: And the “Patient 5 change in volume” value ([3]; Right Putamen)?
Answer: −63.1 mm^3

— US12083115B2, “Methods for treating neurological symptoms associated with lysosomal storage diseases” (Genzyme Corporation, priority 2020, dated 2024)
